Source: patent US8377980B2, “Hepatitis C virus inhibitors” (Bristol-Myers Squibb Company, priority 2009, dated 2013)
Read-outs that look alike come from different tables or passages of the source.

Tested on: HCV 1b genotype
Experiment: HCV Replicon assay (HCV 1b genotype)
Type: cell-based
Settings: Hepatitis C virus, HCV 1b genotype replicon
Description: An HCV Replicon assay was utilized in the present disclosure, and was prepared, conducted and validated as described in commonly owned PCT/US2006/022197 and in O'Boyle et al., Antimicrob. Agents Chemother., 49(4):1346-1353 (April 2005). Assay methods incorporating luciferase reporters have also been used as described (Apath.com).
HCV-neo replicon cells and replicon cells containing resistance substitutions in the NS5A region were used to test the currently described family of compounds. The compounds were determined to have differing degrees of reduced inhibitory activity on cells containing mutations vs. the corresponding inhibitory potency against wild-type cells. Thus, the compounds of the present disclosure can be effective in inhibiting the function of the HCV NS5A protein and are understood to be as effective in combinations as previously described in application PCT/US2006/022197 and commonly owned WO 04/014852. It should be understood that the compounds of the present disclosure can inhibit multiple genotypes of HCV. […] In one embodiment, compounds of the present disclosure are inhibitory versus 1a, 1b, 2a, 2b, 3a, 4a, and 5a genotypes. EC50 values against HCV 1b are as follows.

[1] = range class, read-out: EC50-Range
[2] = Effective 50% inhibitory concentration, read-out: EC50

SMILES	EC50 [1]	EC50 [2]
COC(=O)N[C@H](C(=O)N1[C@@H]2C[C@@H]2C[C@H]1c1nc(-c2ccc(-c3ccc4c(ccc5[nH]c([C@@H]6C[C@H]7C[C@H]7N6C(=O)[C@@H](NC(=O)OC)C6CCOCC6)nc54)c3)cc2)c(Cl)[nH]1)C1CCOCC1 [DSTL-2]	0.01 to 0.1 nM	
COC(=O)N[C@H](C(=O)N1[C@@H]2C[C@@H]2C[C@H]1c1nc(-c2ccc(-c3ccc(-c4nc([C@@H]5C[C@H]6C[C@H]6N5C(=O)[C@@H](NC(=O)OC)C5CCOCC5)[nH]c4F)cc3)cc2)c[nH]1)C1CCOCC1 [DSTL-6]	0.001 to 0.01 nM	
COC(=O)N[C@H](C(=O)N1[C@@H]2C[C@@H]2C[C@H]1c1nc(-c2ccc(-c3ccc(-c4nc([C@@H]5C[C@H]6C[C@H]6N5C(=O)[C@@H](NC(=O)OC)C5CCOCC5)[nH]c4F)cc3)cc2)c(F)[nH]1)C1CCOCC1 [DSTL-7]	0.001 to 0.01 nM	
COC(=O)N[C@H](C(=O)N1[C@@H](C)CC[C@H]1c1nc(-c2ccc(-c3ccc(-c4nc([C@@H]5CC[C@H](C)N5C(=O)[C@@H](NC(=O)OC)C5CCOCC5)[nH]c4F)cc3)cc2)c[nH]1)C1CCOCC1 [DSTL-9]	0.001 to 0.01 nM	
COC(=O)N[C@H](C(=O)N1[C@@H](C)CC[C@H]1c1nc(-c2ccc(-c3ccc(-c4nc([C@@H]5CC[C@H](C)N5C(=O)[C@@H](NC(=O)OC)C5CCOCC5)[nH]c4F)cc3)cc2)c(F)[nH]1)C1CCOCC1 [DSTL-10]	0.001 to 0.01 nM	
COC(=O)N[C@H](C(=O)N1C2C[C@@H]2C[C@H]1c1nc(-c2ccc(-c3ccc(-c4nc([C@@H]5CC6C[C@H]6N5C(=O)[C@@H](NC(=O)OC)C5CCOCC5)[nH]c4C#N)cc3)cc2)c[nH]1)C1CCOCC1 (stereo partly shown) [DSTL-12]	0.01 to 0.1 nM	
CC[C@H](NC(=O)OC)C(=O)N1[C@@H]2C[C@@H]2C[C@H]1c1ncc(-c2ccc(-c3ccc(-c4[nH]c([C@@H]5C[C@H]6C[C@H]6N5C(=O)[C@H](CC)NC(=O)OC)nc4Cl)cc3)cc2)[nH]1 [Example V1]	0.001 to 0.01 nM	
CC[C@H](NC(=O)OC)C(=O)N1[C@@H]2C[C@@H]2C[C@H]1c1nc(Cl)c(-c2ccc(-c3ccc(-c4[nH]c([C@@H]5C[C@H]6C[C@H]6N5C(=O)[C@H](CC)NC(=O)OC)nc4Cl)cc3)cc2)[nH]1 [Example V3]	0.001 to 0.01 nM	
CC[C@H](NC(=O)OC)C(=O)N1[C@@H]2C[C@@H]2C[C@H]1c1nc(Cl)c(-c2ccc(-c3ccc(-c4[nH]c([C@@H]5C[C@H]6C[C@H]6N5C(=O)[C@@H](NC(=O)OC)C5CCOCC5)nc4Cl)cc3)cc2)[nH]1 [Example V9]	0.001 to 0.01 nM	0.0027 nM
COC(=O)N[C@H](C(=O)N1[C@@H](C)CC[C@H]1c1ncc(-c2ccc(-c3ccc(-c4[nH]c([C@@H]5CC[C@H](C)N5C(=O)[C@@H](NC(=O)OC)C(C)C)nc4Cl)cc3)cc2)[nH]1)C(C)C [GW2]	0.001 to 0.01 nM	
COC(=O)N[C@H](C(=O)N1C[C@@H](C)C[C@H]1c1ncc(-c2ccc(-c3ccc(-c4[nH]c([C@@H]5C[C@H](C)CN5C(=O)[C@@H](NC(=O)OC)C(C)C)nc4Cl)cc3)cc2)[nH]1)C(C)C [GW3]	0.001 to 0.01 nM	
COC(=O)N[C@H](C(=O)N1C[C@@H](C)C[C@H]1c1ncc(-c2ccc(-c3ccc(-c4[nH]c([C@@H]5C[C@H](C)CN5C(=O)[C@@H](NC(=O)OC)C5CCOCC5)nc4Cl)cc3)cc2)[nH]1)C1CCOCC1 [GW4]	0.01 to 0.1 nM	
COC(=O)N[C@H](C(=O)N1C[C@@H](C)C[C@H]1c1nc(Cl)c(-c2ccc(-c3ccc(-c4[nH]c([C@@H]5C[C@H](C)CN5C(=O)[C@@H](NC(=O)OC)C(C)C)nc4Cl)cc3)cc2)[nH]1)C(C)C [GW8]	0.001 to 0.01 nM	
COC(=O)N[C@H](C(=O)N1CCC[C@H]1c1nc(-c2ccc(-c3ccc(-c4nc([C@@H]5CCCN5C(=O)[C@@H](NC(=O)OC)C(C)C)[nH]c4Br)cc3)cc2)c[nH]1)C(C)C [JLR-1]	0.001 to 0.01 nM	
COC(=O)N[C@H](C(=O)N1CCC[C@H]1c1nc(-c2ccc(-c3ccc(-c4nc([C@@H]5CCCN5C(=O)[C@@H](NC(=O)OC)C(C)C)[nH]c4I)cc3)cc2)c[nH]1)C(C)C [JLR-2]	0.001 to 0.01 nM	
COC(=O)N[C@H](C(=O)N1[C@@H](C)CC[C@H]1c1nc(-c2ccc(-c3ccc4c(ccc5[nH]c([C@@H]6CC[C@H](C)N6C(=O)[C@@H](NC(=O)OC)C6CCOCC6)nc54)c3)cc2)c(Cl)[nH]1)C1CCOCC1 [JLR-5]	0.001 to 0.01 nM	
COC(=O)NC(C(=O)N1[C@@H]2C[C@@H]2C[C@H]1c1nc(-c2ccc(-c3ccc(-c4[nH]c([C@@H]5C[C@H]6C[C@H]6N5C(=O)C(NC(=O)OC)[C@H]5C[C@@H](C)O[C@@H](C)C5)nc4Cl)cc3)cc2)c[nH]1)[C@H]1C[C@@H](C)O[C@@H](C)C1 (stereo partly shown) [OL6]	0.001 to 0.01 nM	
COC(=O)N[C@H](C(=O)N1CCC[C@H]1c1ncc(-c2ccc(-c3ccc(-c4[nH]c([C@@H]5CCCN5C(=O)[C@@H](NC(=O)OC)C(C)C)nc4C4CC4)cc3)cc2)[nH]1)C(C)C [OL7]	0.001 to 0.01 nM	
C=CCc1nc([C@@H]2CCCN2C(=O)[C@@H](NC(=O)OC)C(C)C)[nH]c1-c1ccc(-c2ccc(-c3cnc([C@@H]4CCCN4C(=O)[C@@H](NC(=O)OC)C(C)C)[nH]3)cc2)cc1 [OL15]	0.001 to 0.01 nM	
C=CCc1cc([C@@H]2CCCN2C(=O)[C@@H](NC(=O)OC)C2CCOCC2)[nH]c1-c1ccc(-c2ccc(-c3cnc([C@@H]4CCCN4C(=O)[C@@H](NC(=O)OC)C4CCOCC4)[nH]3)cc2)cc1 [OL16]	0.01 to 0.1 nM	
COC(=O)N[C@H](C(=O)N1CCC[C@H]1c1ncc(-c2ccc(-c3ccc(-c4[nH]c([C@@H]5CCCN5C(=O)[C@@H](NC(=O)OC)C(C)C)nc4-c4ccnn4C)cc3)cc2)[nH]1)C(C)C [OL19]	0.01 to 0.1 nM	
COC(=O)N[C@H](C(=O)N1[C@@H]2C[C@@H]2C[C@H]1c1nc(-c2ccc(-c3ccc(-c4nc([C@@H]5C[C@H]6C[C@H]6N5C(=O)[C@@H](NC(=O)OC)[C@@H]5CCCOC5)[nH]c4Cl)cc3)cc2)c(Cl)[nH]1)[C@@H]1CCCOC1 [ZY1, dimethyl(S,1S,1′S)-2,2′-((1R,1′R,3S,3′S,5R,5′R)-3,3′-(4,4′-(biphenyl-4,4′-diyl)bis(5-chloro-1H-imidazole-4,2-diyl))bis(2-azabicyclo[3.1.0]hexane-3,2-diyl))bis(2-oxo-1-((S)-tetrahydro-2H-pyran-3-yl)ethane-2,1-diyl)dicarbamate]	0.001 to 0.01 nM	
COC(=O)N[C@H](C(=O)N1[C@@H]2C[C@@H]2C[C@H]1c1nc(-c2ccc(-c3ccc(-c4nc([C@@H]5C[C@H]6C[C@H]6N5C(=O)[C@@H](NC(=O)OC)[C@H]5CCCOC5)[nH]c4Cl)cc3)cc2)c(Cl)[nH]1)[C@H]1CCCOC1 [ZY2, dimethyl(R,1S,1′S)-2,2′-((1R,1′R,3S,3′S,5R,5′R)-3,3′-(4,4′-(biphenyl-4,4′-diyl)bis(5-chloro-1H-imidazole-4,2-diyl))bis(2-azabicyclo[3.1.0]hexane-3,2-diyl))bis(2-oxo-1-((R)-tetrahydro-2H-pyran-3-yl)ethane-2,1-diyl)dicarbamate]	0.001 to 0.01 nM	
COC(=O)NC(C(=O)N1[C@@H]2C[C@@H]2C[C@H]1c1nc(-c2ccc(-c3ccc(-c4nc([C@@H]5C[C@H]6C[C@H]6N5C(=O)[C@H](NC(=O)OC)[C@H]5CCCOC5)[nH]c4Cl)cc3)cc2)c(Cl)[nH]1)[C@@H]1CCCOC1 (stereo partly drawn) [ZY3, dimethyl(R,1R,1′R)-2,2′-((1R,1′R,3S,3′S,5R,5′R)-3,3′-(4,4′-(biphenyl-4,4′-diyl)bis(5-chloro-1H-imidazole-4,2-diyl))bis(2-azabicyclo[3.1.0]hexane-3,2-diyl))bis(2-oxo-1-((R)-tetrahydro-2H-pyran-3-yl)ethane-2,1-diyl)dicarbamate]	0.001 to 0.01 nM	
COC(=O)N[C@@H](C(=O)N1[C@@H]2C[C@@H]2C[C@H]1c1nc(-c2ccc(-c3ccc(-c4nc([C@@H]5C[C@H]6C[C@H]6N5C(=O)[C@H](NC(=O)OC)[C@@H]5CCCOC5)[nH]c4Cl)cc3)cc2)c(Cl)[nH]1)[C@@H]1CCCOC1 [ZY4, dimethyl(S,1R,1′R)-2,2′-((1R,1′R,3S,3′S,5R,5′R)-3,3′-(4,4′-(biphenyl-4,4′-diyl)bis(5-chloro-1H-imidazole-4,2-diyl))bis(2-azabicyclo[3.1.0]hexane-3,2-diyl))bis(2-oxo-1-((S)-tetrahydro-2H-pyran-3-yl)ethane-2,1-diyl)dicarbamate]	0.001 to 0.01 nM	
COC(=O)N[C@@H](C(=O)N1[C@@H]2C[C@@H]2C[C@H]1c1nc(-c2ccc(-c3ccc(-c4nc([C@@H]5C[C@H]6C[C@H]6N5C(=O)[C@H](NC(=O)OC)[C@@H]5CCCOC5)[nH]c4Cl)cc3)cc2)c[nH]1)[C@H]1CCCOC1 [ZY5]	0.001 to 0.01 nM	
COC(=O)NC(C(=O)N1[C@@H]2C[C@@H]2C[C@H]1c1nc(-c2ccc(-c3ccc(-c4c[nH]c([C@@H]5C[C@H]6C[C@H]6N5C(=O)[C@@H](NC(=O)OC)[C@H]5CCCOC5)n4)cc3)cc2)c(Cl)[nH]1)[C@H]1CCCOC1 (stereo partly shown) [ZY6]	0.01 to 0.1 nM	0.0108 nM
COCC[C@H](NC(=O)OC)C(=O)N1[C@@H]2C[C@@H]2C[C@H]1c1nc(-c2ccc(-c3ccc(-c4nc([C@@H]5C[C@H]6C[C@H]6N5C(=O)[C@H](CCOC)NC(=O)OC)[nH]c4Cl)cc3)cc2)c(Cl)[nH]1 [ZY7, dimethyl (2S,2′S)-1,1′-((1R,1′R,3S,3′S,5R,5′R)-3,3′-(4,4′-(biphenyl-4,4′-diyl)bis(5-chloro-1H-imidazole-4,2-diyl))bis(2-azabicyclo[3.1.0]hexane-3,2-diyl))bis(4-methoxy-1-oxobutane-2,1-diyl)dicarbamate]	0.001 to 0.01 nM	
COCC[C@H](NC(=O)OC)C(=O)N1[C@@H]2C[C@@H]2C[C@H]1c1nc(-c2ccc(-c3ccc(-c4nc([C@@H]5C[C@H]6C[C@H]6N5C(=O)[C@H](CCOC)NC(=O)OC)[nH]c4Cl)cc3)cc2)c[nH]1 [ZY8]	0.001 to 0.01 nM	
